# Laboratory results: US20260130888A1, “NOVEL THERAPEUTIC MOLECULE” (Pillai Universal LLC, priority 2022, published 2026)
# “Also recorded” adds a separate entry of the source.
# What was measured:
# p-IRβ = molecular target: T1, p-IRβ (Mus musculus, UniProt P15208); assay: Insulin mimicking effect in skeletal muscle and liver of db/db mice, Western blot and PCR: p-IRβ; assay type: in vivo; conditions: vs non-treated control group
# T1 construct: from tissue; host or cells: skeletal muscle and liver of db/db mice
# T1 sequence (P15208 753-1372 limits assumed): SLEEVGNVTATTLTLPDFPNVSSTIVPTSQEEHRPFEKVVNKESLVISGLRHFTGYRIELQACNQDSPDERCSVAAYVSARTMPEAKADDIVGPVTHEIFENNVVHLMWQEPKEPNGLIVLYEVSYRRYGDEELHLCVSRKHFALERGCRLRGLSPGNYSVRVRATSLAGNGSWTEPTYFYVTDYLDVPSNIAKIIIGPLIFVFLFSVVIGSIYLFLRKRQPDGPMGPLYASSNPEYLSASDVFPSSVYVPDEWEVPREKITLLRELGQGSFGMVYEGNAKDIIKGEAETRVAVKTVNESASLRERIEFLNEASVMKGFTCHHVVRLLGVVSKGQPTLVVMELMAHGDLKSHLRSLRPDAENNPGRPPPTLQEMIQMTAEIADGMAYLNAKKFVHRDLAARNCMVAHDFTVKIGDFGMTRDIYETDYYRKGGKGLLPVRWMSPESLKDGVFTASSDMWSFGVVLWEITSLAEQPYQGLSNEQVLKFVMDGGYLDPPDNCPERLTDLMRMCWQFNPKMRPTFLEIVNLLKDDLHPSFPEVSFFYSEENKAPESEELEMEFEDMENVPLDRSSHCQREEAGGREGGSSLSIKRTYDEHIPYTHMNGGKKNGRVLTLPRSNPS
# T1 sequence (P15208 28-748 partner limits assumed): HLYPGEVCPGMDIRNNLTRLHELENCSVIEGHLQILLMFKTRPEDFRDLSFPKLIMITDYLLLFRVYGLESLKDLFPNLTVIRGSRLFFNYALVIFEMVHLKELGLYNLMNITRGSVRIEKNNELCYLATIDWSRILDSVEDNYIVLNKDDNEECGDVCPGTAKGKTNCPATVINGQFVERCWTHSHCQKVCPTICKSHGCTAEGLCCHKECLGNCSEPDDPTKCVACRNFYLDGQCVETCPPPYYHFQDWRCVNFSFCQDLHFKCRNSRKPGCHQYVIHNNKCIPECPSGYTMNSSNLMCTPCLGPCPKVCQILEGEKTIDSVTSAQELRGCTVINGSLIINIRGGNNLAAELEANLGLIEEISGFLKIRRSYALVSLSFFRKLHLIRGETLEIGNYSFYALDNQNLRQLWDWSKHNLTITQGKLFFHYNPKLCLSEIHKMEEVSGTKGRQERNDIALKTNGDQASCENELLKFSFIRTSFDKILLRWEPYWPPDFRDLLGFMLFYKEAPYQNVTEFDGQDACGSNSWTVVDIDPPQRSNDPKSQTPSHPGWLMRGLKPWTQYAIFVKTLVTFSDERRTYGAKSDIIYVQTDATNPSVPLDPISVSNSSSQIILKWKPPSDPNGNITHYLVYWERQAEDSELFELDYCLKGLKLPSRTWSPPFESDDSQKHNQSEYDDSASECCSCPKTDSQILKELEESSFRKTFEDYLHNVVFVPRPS
# Method: (§1) Insulin Mimicking Effect of COMPOUND I in Skeletal Muscle and Liver of db/db Mice
# (§2) To further utilize the insulin mimetic effect of Compound I, the key proteins in PTP1B and PI3K/Akt signaling pathway were evaluated using Western blot and PCR after treatment with Compound I. Western blotting and PCR analysis have been carried out to verify the expression of PTP1B and IR β in skeletal muscle and liver to establish the inhibition effect of Compound I towards PTP1B.
# p-IRβ, IR = assay: Phosphorylated insulin-signaling molecules in muscles and liver of diabetic mice (discussion); assay type: in vivo; conditions: oral administration, dose-dependent
# Text: (§3) Next, we examine the effect of COMPOUND Ion PTP-1B inhibition and activation of IR-β phosphorylation by PCR and Western blotting studies. In the current study, we used the type 2 diabetic C57BL/6J STZ, HFD+STZ C57BL/6J, db/db mouse model to assess the antihyperglycemic property. […] As shown in FIGS. 6&8, There is a diminish in the tyrosine phosphorylation levels of the IR β- in the skeletal muscle and liver of diabetic mice, involving the PTP1B function in all the diabetic-treated mice. According to Tagami et al. expression of PTP1B activity up regulated in the skeletal muscle and adipose tissue of Otsuka Long-Evans Tokush-in fat rats. Haj et al. established that the hepatic-specific over expression of PTP1B confirmed insulin resistance no longer merely in the liver but also in other tissues in PTP1B knockout mice. For that reason, PTP1B plays a main function in diabetic mice. When PTP1B gets activated, the insulin signaling transduction pathway blocked, and the level of plasma glucose is disturbed, ensuing in the increased plasma glucose level. […] The increased in the tyrosine phosphorylation expression level of the IR β-subunit in the skeletal muscle and liver of Compound I treated diabetic mice point out the enhancement of insulin sensitivity in the entire animal model tested.
# [1] = test system: IRS-1, IRS-2, PI3K, Glut4 and Akt; assay: Expression of diabetic-associated gene transcripts in streptozotocin-induced diabetic mice, semiquantitative RT-PCR; assay type: in vivo
# Method: One of the mechanisms which can stimulate or enhance glucose uptake in cells is the elevated translocation of glucose transporter 4 (GLUT 4) from the intracellular site to the plasma membrane. […] The expression of diabetic-related, gluconeogenic and glycolytic genes, in streptozotocin-induced diabetic mice, were treated with Compound I was determined using semiquantitative RT-PCR. As the internal control, GAPDH the band density of each target gene normalized to the band density of GAPDH of the sample.
# db/db diabetic mice [2] = assay: Effect on body weight, total cholesterol, plasma glucose and triglyceride levels of db/db diabetic mice; assay type: in vivo
# Text: Effect of Compound I on Body Weight Total Cholesterol, Plasma Glucose, and Triglyceride Levels of db/db Diabetic Mice
# It is well-known that there is an increase of serum lipid concentration in people with diabetes.
# db/db mouse is a genetic obesity diabetic animal model produced with the aid of the shortage of leptin receptor. The pathogenesis features of T2DM in db/db mice was similar to those in human type 2 diabetes, including hyperglycemia, obesity, and insulin resistance. Current years, db/db mice have been broadly used in animal experiments to set up the T2DM model. We have investigated whether Compound I include IR activators with insulin-mimetic and insulin-sensitizing activity by means of evaluating their effects on IR signaling. Compound I (100 mg/kg and 200 mg/kg b.wt) treatment for 7 days reduced food consumption and body weight in the db/db mice, an inherited obese animal model (FIG. 5, a-d). […] Based on these findings, further studies on Compound I have been carried out in the subsequent experiments to explore their inhibitory activity against PTP1B.
# PI3K, GLUT4 = assay: PI3K and GLUT4 gene expression in diabetic mice (discussion); assay type: in vivo
# Text: as §3, with “tested. […]” for “tested.”
# [3] = test system: IRS-1, IRS-2, PI3K, Glut4, Akt; assay: Liver insulin resistance in C57BL/6J-db/db mice: expression of insulin signaling genes; assay type: in vivo; conditions: vs C57BL/6J-db/db control group, p<0.05
# Text: Effect of Compound I on Liver Insulin Resistance in the C57BL/6J-db/Dbmice
# The expression of insulin signaling genes such as IRS-1, IRS-2, PI3K, Glut4, Akt in the livers of the db/db mice reduced noticeably when compared with that of the normal mice. There was a significant enhance within the activation of all the examined genes in the C57BL/6J-db/db treatment group compared to that of normal control group FIG. 8.
# db/db diabetic mice [4] = assay: Effect on body weight, total cholesterol, plasma glucose and triglyceride levels of db/db diabetic mice; assay type: in vivo; conditions: 100 and 200 mg/kg b.wt, 2 weeks, vs control mice
# [5] = test system: HFD+STZ type II diabetic mice; assay: Effect on body weight, plasma glucose, total cholesterol and triglyceride levels of HFD+STZ type II diabetic mice; assay type: in vivo, C57BL/6J mice
# Text: Effect of Compound I on body weight, Total cholesterol, Plasma glucose, and triglyceride levels of HFD+STZ type II diabetic mice:
# Eight weeks of dietary manipulation with high-fat diet increased the body weight in all the groups when compared to NPD group.
# Type 2 diabetes mellitus and its related complications have arisen as serious health problems in modern societies. The cutting edge technology of drug development is to identify small molecule drugs helpful in controlling both diabetes and obesity. In this study, we assess the impact of a small molecule Compound I having insulin mimicking effect by inhibiting PTP-1B and activating IR-β phosphorylation in insulin-sensitive tissues by in vivo animal model. […] The induction of diabetes mellitus in mice confirmed by elevated levels of fasting plasma glucose. Plasma glucose level measured in normal and experimental mice.
# inflammatory parameters = assay: Inflammatory mediators in HFD+STZ type II diabetic mice; assay type: in vivo
# Text: FIG. 7 depicts the Insulin mimicking effect of compound I in Liver and skeletal muscle of HFD+STZ type II diabetic mice • a. Insulin Mimetic Effect • b. Inflammatory mediators
# (§4) In the insulin signaling pathway, protein tyrosine phosphatase 1B (PTP1B) considered playing a vital role in the intracellular signal transduction process and metabolism. There is compelling confirmation that PTP1B, is principally responsible for the dephosphorylation of insulin receptor (IR-β), as a result, leading to the block of insulin signaling transduction pathway. […] (FIG. 7, a & b)
# insulin receptor (IR-β) = assay: Insulin mimicking effect in liver and skeletal muscle of HFD+STZ mice, PCR analysis: IR-β; assay type: in vivo; conditions: dose-dependent
# Text: (§5) Insulin Mimicking Effect of Compound I in Liver and Skeletal Muscle of HFD+STZ Type II Diabetic Mice
# as §4
# PTP1B [6] = assay: Insulin mimicking effect in liver and skeletal muscle of HFD+STZ mice, PCR analysis: PTP1B; assay type: in vivo; conditions: dose-dependent, p<0.05
# Text: as §5, §4
# PTP1B [7] = assay: Insulin mimicking effect in skeletal muscle and liver of db/db mice, Western blot and PCR: PTP1B; assay type: in vivo; conditions: vs control group, p<0.01
# Method: as §1, §2
# [8] = 100 and 200 mg/kg b.wt, treatment for 7 days
# [9] = 7 days after treatment, vs control mice
# [10] = Compound I, dose-dependent, high dose better (P<0.05)
# [11] = 14 days after treatment, dose-dependent, vs control mice
# [12] = C57BL/6J mice fed high-fat diets, 7 days after injection, vs control mice
# [13] = low and high doses (100 and 200 mg/kg), vs diabetic group
# [14] = metformin-treated group vs model group
# [15] = Metformin 250 mg/kg b.wt, vs diabetic group
compound,measurement,setting,value
"COc1cc(CO)cc2c1[nH]c1c(/C(C)=C/C(=O)O)cccc12 [Compound I, (2E)-3-[6-(hydroxymethyl)-8-methoxy-9H carbazol-1-yl]but-2-enoic acid]",p-IRβ,p-IRβ,significantly increased
same,"expression level of proteins (p-IRβ, IR)","p-IRβ, IR",significantly augmented
same,"expression of all the gene transcripts, fold increased expression","[1]; Compound I 100 mg/kg, Liver tissue",~2.5 fold
same,"expression of all the gene transcripts, fold change","[1]; Compound I 100 mg/kg, skeletal muscle",~3.5 fold change
same,free fatty acids levels,"db/db diabetic mice [2]; 100 and 200 mg/kg b.wt, 7 days, vs normal control",reduced
same,body weight,db/db diabetic mice [2]; [8],reduced
same,food consumption,db/db diabetic mice [2]; [8],reduced
same,Fasting plasma glucose,db/db diabetic mice [2]; [9],markedly lower; also recorded: reduced
same,insulin,db/db diabetic mice [2]; [9],markedly lower; also recorded: reduced
same,triglyceride levels,db/db diabetic mice [2]; [9],markedly lower; also recorded: reduced
same,total cholesterol concentration,db/db diabetic mice [2]; [10],lowered
same,triglycerides concentration,db/db diabetic mice [2]; [10],lowered
same,PI3K and GLUT4 expression levels,"PI3K, GLUT4; in contrast to diabetic mice",enhanced significantly
same,GLUT4 mRNA expression,"PI3K, GLUT4; vs normal control group",extremely expressed
same,expression of all genes involved in insulin signaling pathway,[3],notably enhanced
same,body weights,db/db diabetic mice [4],significantly decreased
same,food intake,db/db diabetic mice [4]; p>0.05,extensively lower
same,food intake,"[5]; 100 and 200 mg/kg b.wt, C57BL/6J mice fed high-fat diets for 7 days, vs control mice",extensively decreased
same,Fasting plasma glucose,[5]; [11],markedly diminished
same,insulin levels,[5]; [11],markedly diminished; also recorded: markedly reduced
same,triglyceride levels,[5]; [11],markedly diminished; also recorded: markedly reduced
same,Fasting plasma glucose levels,[5]; [12],markedly diminished
same,insulin levels,[5]; [12],markedly diminished
same,triglyceride levels,[5]; [12],markedly diminished
same,body weights,"[5]; C57BL/6J mice fed high-fat diets, 7 days, vs normal control mice",widely dropped
same,food intake,"[5]; Compound I 100 mg/kg and 200 mg/kg b.wt, 14 days, C57BL/6J mice fed high-fat diets, vs control mice, p<0.001",drastically lower
same,body weights,"[5]; Compound I 100 and 200 mg/kg b.wt, 14 days, vs control mice",significantly reduce
same,decrease in Plasma glucose levels,[5]; [13],approximately two fold
same,decrease in triglycerides levels,[5]; [13],approximately two fold
same,total cholesterol levels reduced,[5]; [13],2.5 fold
same,plasma glucose level,"[5]; oral 100 mg/kg and 200 mg/kg b.wt, STZ-treated diabetic mice",highly significant effect by reducing
same,expression of inflammatory parameters,inflammatory parameters,significantly reduced
same,IR-β levels,insulin receptor (IR-β),concomitant increase
same,expression of PTP1B,PTP1B [6],significantly decreased
same,PTP1B expression,PTP1B [7],downregulated substantially
"CN(C)C(=N)N=C(N)N [Metformin, reference compound]",levels of insulin-signaling gene expression,"[1]; Metformin-treated groups, skeletal muscle and liver tissue, p<0.05",increased levels
same,serum total cholesterol levels,db/db diabetic mice [2]; [14],lower than in the model group
same,serum triglyceride levels,db/db diabetic mice [2]; [14],lower than in the model group
same,glucose,[5]; [15],markedly reduced
same,total cholesterol,[5]; [15],markedly reduced
same,triglycerides,[5]; [15],markedly reduced
